Measured values taken from PMC3914206.

How the values were obtained:
Assay type in all cases: binding
Conditions in all cases: Compound Concentration 10 µM
panel of 442 kinases [1] = target: T1, panel of 442 kinases (Homo sapiens, UniProt O14733)
T1 construct: purchased KINOMEscan
T1 sequence (O14733 1-419): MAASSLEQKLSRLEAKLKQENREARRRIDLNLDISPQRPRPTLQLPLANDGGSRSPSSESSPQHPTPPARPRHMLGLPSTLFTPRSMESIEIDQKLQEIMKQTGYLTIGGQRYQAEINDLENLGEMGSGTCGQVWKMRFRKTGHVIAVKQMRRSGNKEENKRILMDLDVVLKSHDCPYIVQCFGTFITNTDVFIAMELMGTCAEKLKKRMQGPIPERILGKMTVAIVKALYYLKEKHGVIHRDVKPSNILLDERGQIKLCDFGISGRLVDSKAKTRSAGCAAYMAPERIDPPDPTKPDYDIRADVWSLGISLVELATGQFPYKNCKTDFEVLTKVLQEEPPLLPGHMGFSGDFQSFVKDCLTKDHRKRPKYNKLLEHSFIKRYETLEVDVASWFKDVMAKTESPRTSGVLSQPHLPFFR
Description: (§1) We assessed the selectivity of members of this scaffold using the KINOMEscan methodology across a near comprehensive panel of 442 kinases [[18,27]].

panel of 442 kinases [2] = target: T2, panel of 442 kinases (Homo sapiens, UniProt Q8IY84)
T2 construct: purchased KINOMEscan
T2 sequence (Q8IY84 whole entry): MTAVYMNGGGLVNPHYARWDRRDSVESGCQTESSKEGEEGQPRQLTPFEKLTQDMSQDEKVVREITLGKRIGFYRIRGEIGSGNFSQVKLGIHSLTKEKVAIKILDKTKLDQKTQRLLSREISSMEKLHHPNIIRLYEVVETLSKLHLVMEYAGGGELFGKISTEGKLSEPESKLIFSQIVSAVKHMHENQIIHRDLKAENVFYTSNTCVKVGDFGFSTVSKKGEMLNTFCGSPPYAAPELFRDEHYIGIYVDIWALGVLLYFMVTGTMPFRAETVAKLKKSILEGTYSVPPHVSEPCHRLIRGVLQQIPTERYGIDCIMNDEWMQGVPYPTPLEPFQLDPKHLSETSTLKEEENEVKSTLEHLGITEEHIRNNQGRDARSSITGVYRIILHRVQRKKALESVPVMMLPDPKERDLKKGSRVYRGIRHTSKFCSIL
Description: as §1

panel of 442 kinases [3] = target: T3, panel of 442 kinases (Homo sapiens, UniProt Q8N568)
T3 construct: purchased KINOMEscan
T3 sequence (Q8N568 whole entry): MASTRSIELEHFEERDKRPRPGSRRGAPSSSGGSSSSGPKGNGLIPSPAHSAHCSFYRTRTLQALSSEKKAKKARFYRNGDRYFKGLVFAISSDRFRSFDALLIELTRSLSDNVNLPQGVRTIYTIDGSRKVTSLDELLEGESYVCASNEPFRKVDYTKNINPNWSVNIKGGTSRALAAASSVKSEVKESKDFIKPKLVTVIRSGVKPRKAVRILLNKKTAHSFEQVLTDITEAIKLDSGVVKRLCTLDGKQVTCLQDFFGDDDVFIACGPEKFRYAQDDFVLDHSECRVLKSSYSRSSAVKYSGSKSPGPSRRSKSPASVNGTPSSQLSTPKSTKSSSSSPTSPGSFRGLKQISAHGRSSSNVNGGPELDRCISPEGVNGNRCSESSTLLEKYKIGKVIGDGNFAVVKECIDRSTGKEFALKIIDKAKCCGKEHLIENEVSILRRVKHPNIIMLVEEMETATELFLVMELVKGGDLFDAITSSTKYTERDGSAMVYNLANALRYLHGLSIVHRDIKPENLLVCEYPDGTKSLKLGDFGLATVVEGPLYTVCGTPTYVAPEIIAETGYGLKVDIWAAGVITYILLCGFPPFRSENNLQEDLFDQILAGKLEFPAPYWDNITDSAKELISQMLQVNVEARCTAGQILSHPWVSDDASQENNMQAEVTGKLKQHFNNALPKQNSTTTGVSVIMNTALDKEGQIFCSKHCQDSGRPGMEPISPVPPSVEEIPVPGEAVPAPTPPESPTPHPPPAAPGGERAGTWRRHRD
Description: as §1

Row | SMILES | KINOMEscan: MKK7 (panel of 442 kinases [1]) | KINOMEscan: NIM1 (panel of 442 kinases [2]) | KINOMEscan: DCAMKL2 (panel of 442 kinases [3])
1 | COc1cc(C(=O)N2CCC(N3CCN(C)CC3)CC2)ccc1Nc1ncc2c(n1)N(C1CCCC1)c1ccccc1C(=O)N2C [Compound 25, 11-cyclopentyl-2-((2-methoxy-4-(4-(4-methylpiperazin-1-yl)piperidine-1-carbonyl)phenyl)amino)-5-methyl-5H-benzo[e]pyrimido[5,4-b][1,4]diazepin-6(11H)-one] | 100 | 100 | 1.1
2 | COc1cc(C(=O)N2CCC(N3CCN(C)CC3)CC2)ccc1Nc1ncc2c(n1)N1CCc3cccc(c31)C(=O)N2C [Compound 24] | – | – | 1.2
3 | COc1cc(C(=O)N2CCC(N3CCN(C)CC3)CC2)ccc1Nc1ncc2c(n1)N(C)c1ccccc1C(=O)N2C [15 (LRRK2-IN-1)] | 100 | 100 | 0.45
4 | CCOc1cc(C(=O)N2CCC(N3CCN(C)CC3)CC2)ccc1Nc1ncc2c(n1)N(C1CCCC1)c1ccccc1C(=O)N2C [Compound 26] | 88 | 100 | 3.6
